How the values were obtained:
[1] = system: diabetic Zucker rats; experiment: Oral glucose tolerance test after 3 weeks dosing in diabetic Zucker rats; type: in vivo, rat; conditions: male diabetic Zucker rats, 1.5 mg/kg bid for 3 weeks, vs vehicle
Protocol: (§1) A study was performed in a colony of diabetic Zucker rats housed in Vancouver, Canada. This is a model of hyperinsulinemia and impaired glucose tolerance/mild type 2 diabetes. The aim was to investigate whether treatment with the test compound 6-chloro-3-(1-methylcylodopropyl)amino-4H-thieno[3,2-e]-1,2,4-thiadiazine 1,1-dioxide could lead to a reduction in hyperinsulinemia and an improvement in insulin secretory responsiveness to glucose in the perfused pancreas. Male diabetic Zucker rats were dosed for 3 weeks with either 1.5 mg/kg 6-chloro-3-(1-methylcylodopropyl)amino-4H-thieno[3,2-e]-1,2,4-thiadiazine 1,1-dioxide bid (n=8) or vehicle (n=16). Oral glucose tolerance was assessed in the animals the day after the last dose was given.

[2] = system: perfused pancreas; experiment: Perfused pancreas from treated diabetic Zucker rats; type: in vivo, rat
Protocol: as §1

[3] = molecular target: KATP-channels on pancreatic beta-cells (Homo sapiens, UniProt Q09428); conditions: by activation of KATP-channels on pancreatic beta-cells; Pirotte et al. 1993, 1994; cited from earlier work
Chain of KATP-channels on pancreatic beta-cells (Q09428 whole entry): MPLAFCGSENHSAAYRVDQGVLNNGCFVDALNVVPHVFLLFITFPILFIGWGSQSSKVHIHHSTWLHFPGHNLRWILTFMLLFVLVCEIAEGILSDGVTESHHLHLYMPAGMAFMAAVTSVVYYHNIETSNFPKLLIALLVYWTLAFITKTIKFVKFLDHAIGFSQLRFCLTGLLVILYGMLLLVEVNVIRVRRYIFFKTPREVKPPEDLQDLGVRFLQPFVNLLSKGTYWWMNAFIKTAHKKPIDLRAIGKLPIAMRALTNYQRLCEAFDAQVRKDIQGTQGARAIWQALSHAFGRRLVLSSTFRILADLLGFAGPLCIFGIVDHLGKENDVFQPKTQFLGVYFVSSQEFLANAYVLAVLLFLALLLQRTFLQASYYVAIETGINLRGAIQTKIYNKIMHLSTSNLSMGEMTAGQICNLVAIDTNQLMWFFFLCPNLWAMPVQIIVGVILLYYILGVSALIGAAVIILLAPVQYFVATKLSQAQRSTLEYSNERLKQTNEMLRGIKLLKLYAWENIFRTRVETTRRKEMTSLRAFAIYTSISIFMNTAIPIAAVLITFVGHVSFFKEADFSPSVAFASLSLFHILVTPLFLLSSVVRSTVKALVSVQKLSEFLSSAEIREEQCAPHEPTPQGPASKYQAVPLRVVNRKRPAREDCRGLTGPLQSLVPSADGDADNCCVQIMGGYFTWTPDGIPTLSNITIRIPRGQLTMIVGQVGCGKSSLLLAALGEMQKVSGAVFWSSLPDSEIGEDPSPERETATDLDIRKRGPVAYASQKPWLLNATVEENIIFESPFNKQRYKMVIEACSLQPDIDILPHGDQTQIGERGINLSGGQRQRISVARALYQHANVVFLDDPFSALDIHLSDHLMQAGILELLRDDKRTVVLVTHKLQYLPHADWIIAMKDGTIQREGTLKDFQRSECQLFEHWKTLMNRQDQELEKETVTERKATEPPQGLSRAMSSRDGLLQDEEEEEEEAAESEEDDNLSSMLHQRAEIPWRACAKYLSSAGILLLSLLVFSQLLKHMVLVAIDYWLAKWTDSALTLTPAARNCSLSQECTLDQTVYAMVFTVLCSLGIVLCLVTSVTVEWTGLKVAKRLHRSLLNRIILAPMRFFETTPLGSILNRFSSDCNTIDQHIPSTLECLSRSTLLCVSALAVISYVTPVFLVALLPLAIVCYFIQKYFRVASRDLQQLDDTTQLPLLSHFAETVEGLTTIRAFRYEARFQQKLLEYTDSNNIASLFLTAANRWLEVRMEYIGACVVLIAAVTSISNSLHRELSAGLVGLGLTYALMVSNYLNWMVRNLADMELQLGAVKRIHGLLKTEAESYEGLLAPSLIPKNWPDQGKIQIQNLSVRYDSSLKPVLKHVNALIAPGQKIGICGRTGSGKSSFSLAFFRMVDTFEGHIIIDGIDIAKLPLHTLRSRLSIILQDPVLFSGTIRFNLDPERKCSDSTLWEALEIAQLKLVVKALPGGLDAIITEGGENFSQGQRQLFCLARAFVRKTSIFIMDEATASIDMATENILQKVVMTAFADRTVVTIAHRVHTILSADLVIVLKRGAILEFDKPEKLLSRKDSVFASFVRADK
Chain of KATP-channels on pancreatic beta-cells (Q14654 whole entry partner): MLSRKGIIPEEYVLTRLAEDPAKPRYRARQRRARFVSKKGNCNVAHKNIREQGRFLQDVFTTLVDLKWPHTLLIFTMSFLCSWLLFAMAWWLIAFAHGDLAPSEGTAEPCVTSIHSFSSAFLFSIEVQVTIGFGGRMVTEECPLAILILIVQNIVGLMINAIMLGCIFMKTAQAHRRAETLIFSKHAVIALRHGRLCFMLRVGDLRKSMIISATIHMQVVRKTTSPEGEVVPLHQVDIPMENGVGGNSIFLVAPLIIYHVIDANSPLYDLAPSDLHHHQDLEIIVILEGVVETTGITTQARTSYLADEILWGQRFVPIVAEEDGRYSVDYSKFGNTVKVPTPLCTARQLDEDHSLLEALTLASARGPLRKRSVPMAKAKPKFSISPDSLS

CC1(NC2=NS(=O)(=O)c3sc(Cl)cc3N2)CC1 [6-chloro-3-(1-methylcylodopropyl)amino-4H-thieno[3,2-e]-1,2,4-thiadiazine 1,1-dioxide]
oral glucose tolerance ([1]; assessed the day after the last dose): significantly improved
hyperinsulinemia (associated with the oral glucose tolerance test) ([1]; day after the last dose): significant reduction in hyperinsulinemia
hyperinsulinemia in perfused pancreas ([2]; pancreata from rats treated 1.5 mg/kg bid for 3 weeks, evaluated two days after OGTT): reduced hyperinsulinemia
insulin secretory responsiveness to glucose in perfused pancreas ([2]; pancreata from treated rats, two days after OGTT, data expressed relative to baseline): improved insulin secretory responsiveness to glucose

CC1=Nc2ccc(Cl)cc2S(=O)(=O)N1 [diazoxide, 7-chloro-3-methyl-2H-1,2,4-benzothiadiazine 1,1-dioxide]
insulin release [3]: inhibit insulin release

Source: patent publication US20030109519A1, “Use of selective potassium channel openers” (priority 2001, published 2003)
